The values below are quoted from earlier work in patent publication US20210038669A1, “Composition(s) for Topically Treating Pain” (priority 2016, published 2021).

The series concerns neuropathic pain conditions (postherpetic neuralgia, trigeminal, postsurgical or post-traumatic neuralgia). The settings on record: 5% patch, 5% cream, 5% gel, 8% spray; all but one study; third tier (very low quality) evidence.

The structures appear in SMILES notation.

Consider `CCN(CC)CC(=O)Nc1c(C)cccc1C` [lidocaine, Lidocaine], for which the “pain relief versus placebo” value is listed as “better than placebo”.
